Values quoted from earlier work, collected in article PMC8796384, “Plasma protein binding prediction focusing on residue-level features and circularity of cyclic peptides by deep learning” (Bioinformatics, 2021).
Like-named read-outs stand apart in the source and are kept apart here.

What was measured:
plasma proteins [1] = test system: plasma proteins
Description: The external test (DrugBank) data contained some structurally similar pairs.

plasma proteins [2] = settings: whole-peptide descriptor model trained on small molecules; ref Tajimi et al. (2018)
[3] = experimental %PPB, below 50% rounded to 50%, above 95% rounded to 95%, DrugBank dataset collected by Tajimi et al. (2018), ref Wishart et al., 2018

| Substance | %PPB50-95 (plasma proteins [1]; [3]) [%] | further results |
| --- | --- | --- |
| Anidulafungin | 84 |  |
| Caspofungin | 95 |  |
| Lanreotide | 81 |  |
| Micafungin | 95 |  |
| Pasireotide |  | %PPB50-95 (plasma proteins [1]): 88% |
| Polymyxin B |  | %PPB50-95 (plasma proteins [1]): 85.5% |
| daptomycin |  | predicted %PPB value by Tajimi (plasma proteins [2]): 49% |
